Test results reported in patent publication US8470867B2, “Sigma receptor inhibitors” (Laboratorios Del Dr. Esteve, S.A., priority 2004, dated 2013).

Experiments:
σ1-receptor = target: T1, σ1-receptor (Cavia porcellus, UniProt Q60492); test: Sigma-1 receptor binding, [3H](+)-pentazocine, brain membranes; design: species or system guinea pig; conditions: for inhibition at 0.1 µM: 10^−7 M
T1 construct: guinea pig brains were homogenized; from tissue; host or cells: guinea pig brain membranes
Method: Brain membrane preparation and binding assays for the σ1-receptor were performed as described (DeHaven-Hudkins et al., 1992) with some modifications. In brief, guinea pig brains were homogenized in 10 vols. (w/v) of Tris-HCl 50 mM 0.32 M sucrose, pH 7.4, with a Kinematica Polytron PT 3000 at 15000 r.p.m. for 30 s. The homogenate was centrifuged at 1000 g for […] at 4° C. and the supernatants collected and centrifuged again at 48000 g for 15 min at 4° C. The pellet was resuspended in 10 volumes of Tris-HCl buffer (50 mM, pH 7.4), incubated at 37° C. for 30 min, and centrifuged at 48000 g for 20 min at 4° C. Following this, the pellet was resuspended in fresh Tris-HCl buffer (50 mM, pH 7.4) and stored on ice until use.
Each assay tube contained 10 μL of [^3H](+)-pentazocine (final concentration of 0.5 nM), 900 μL of the tissue suspension to a final assay volume of 1 mL and a final tissue concentration of approximately 30 mg tissue net weight/mL. […] All tubes were incubated at 37° C. for 150 min before termination of the reaction by rapid filtration over Schleicher & Schuell GF 3362 glass fibre filters [previously soaked in a solution of 0.5% polyethylenimine for at least 1 h]. Filters were then washed with four times with 4 mL of cold Tris-HCl buffer (50 mM, pH 7.4). Following addition of scintillation cocktail, the samples were allowed to equilibrate overnight. The amount of bound radioactivity was determined by liquid scintillation spectrometry using a Wallac Winspectral 1414 liquid scintillation counter. Protein concentrations were determined by the method of Lowry et al. (1951).

sigma (σ-2) site = sigma (σ-2) site (Homo sapiens, UniProt Q5BJF2); conditions: cited from earlier work
Sequence of sigma (σ-2) site (Q5BJF2 whole entry): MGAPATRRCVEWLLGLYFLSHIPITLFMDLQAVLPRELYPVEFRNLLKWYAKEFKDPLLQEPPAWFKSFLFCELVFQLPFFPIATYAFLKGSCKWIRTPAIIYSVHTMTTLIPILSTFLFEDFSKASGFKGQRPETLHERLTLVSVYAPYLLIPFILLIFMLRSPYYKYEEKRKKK

sigma 1 (σ-1) site = sigma 1 (σ-1) site (Homo sapiens, UniProt Q99720); conditions: cited from earlier work
Sequence of sigma 1 (σ-1) site (Q99720 whole entry): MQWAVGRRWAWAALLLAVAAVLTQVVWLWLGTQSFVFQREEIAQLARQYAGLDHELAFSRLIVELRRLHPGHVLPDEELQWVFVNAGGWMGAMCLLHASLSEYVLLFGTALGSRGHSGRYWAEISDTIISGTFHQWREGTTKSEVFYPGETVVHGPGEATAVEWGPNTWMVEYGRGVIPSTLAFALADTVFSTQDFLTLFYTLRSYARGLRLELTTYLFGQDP

[1] = tested on: capsaicin-induced mechanical allodynia; test: Effect on capsaicin in development of mechanical allodynia (von Frey filaments); type: in vivo; conditions: mice
Method: This model uses the von-Frey Filaments and is a model to test the effects or symptoms of neuropathic pain, allodynia etc.
• The injection of 1 μg of capsaicin to experimental animals produces acute pain followed by hyperalgesia/allodynia • The mechanisms involved in capsaicin-induced acute pain and hyperalgesia are relatively well known (mainly activation of peripheral nociceptors and sensitization of spinal cord neurons, respectively)
After habituation mice were according to FIG. 1 first treated with the test-compound (or solvent in controls). Then 1 μg capsaicin (1% DMSO) is injected into their paw resulting in developing pain in the effected paw. The effected paw is then treated with a mechanical stimulus and the latency time before the paw is withdrawn is measured.

σ2-receptor = target: T2, σ2-receptor (Mus musculus, UniProt Q8VD00); test: Sigma-2 receptor binding, [3H]-DTG, brains from σ1 knockout mice; design: % Binding σ2: dose or concentration left out as unconfirmed
T2 construct: brains from sigma receptor type I (σ1) knockout mice were homogenized; from tissue; host or cells: brain membranes of σ1 knockout mice
T2 sequence (Q8VD00 1-176): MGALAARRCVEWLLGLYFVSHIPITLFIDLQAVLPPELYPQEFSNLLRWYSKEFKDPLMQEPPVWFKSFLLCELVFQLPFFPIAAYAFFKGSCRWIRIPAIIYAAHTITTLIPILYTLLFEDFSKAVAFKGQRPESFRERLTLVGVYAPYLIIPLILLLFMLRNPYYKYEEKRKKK
Method: Binding studies for σ2-receptor were performed as described ([…] et al., 1991) with some modifications. In brief, brains from sigma receptor type I (σ1) knockout mice were homogenized in a volume of 10 mL/g tissue net weight of ice-cold 10 mM Tris-HCl, pH 7.4, containing 320 mM sucrose (Tris-sucrose buffer) with a Potter-Elvehjem homogenizer (10 strokes at 500 r.p.m.) The homogenates were then centrifuged at 1000 g for […] at 4° C., and the supernatants were saved. The pellets were resuspended by vortexing in 2 mL/g ice-cold Tris-sucrose buffer and centrifuged again at 1000 g for 10 min. The combined 1000 g supernatants were centrifuged at 31000 g for 15 min at 4° C. The pellets were resuspended by vortexing in 3 mL/g 10 mM Tris-HCl, pH 7.4, and the suspension was kept at 25° C. for 15 min. Following centrifugation at 31000 g for 15 min, the pellets were resuspended by gentle Potter Elvehjem homogenization to a volume of 1.53 mL/g in 10 mM Tris-HCl pH 7.4. The assay tubes contained 10 μL of [^3H]-DTG (final concentration of 3 nM), 400 μL of the tissue suspension (5.3 mL/g in 50 mM Tris-HCl, pH 8.0) to a final assay volume of 0.5 mL. […] The amount of bound radioactivity was determined by liquid scintillation spectrometry using a Wallac Winspectral 1414 liquid scintillation counter. Protein concentrations were determined by the method of Lowry et al. (1951).

psychosis = conditions: cited from earlier work

T1 sequence (Q60492 whole entry): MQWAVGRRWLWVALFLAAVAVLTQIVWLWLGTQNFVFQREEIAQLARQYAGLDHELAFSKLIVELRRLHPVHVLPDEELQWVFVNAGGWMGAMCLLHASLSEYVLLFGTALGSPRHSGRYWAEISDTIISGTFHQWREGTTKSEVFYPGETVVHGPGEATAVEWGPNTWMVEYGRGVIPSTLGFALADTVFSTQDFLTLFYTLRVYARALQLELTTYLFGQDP

Cl.Clc1ccc(-n2nc(OCCN3CCOCC3)cc2-c2ccccc2)cc1Cl [Example 16, 4-{2-[1-(3,4-Dichlorophenyl)-5-phenyl-1H-pyrazol-3-yloxy]ethyl}morpholine hydrochloride]
melting point: 197 to 207 °C | inhibition at 0.1 µM (σ1-receptor): 46.5%

CC(C)c1cc(OCCN2CCCC2)nn1-c1ccc(Cl)c(Cl)c1.Cl [Example 33, 1-(3,4-Dichlorophenyl)-5-isopropyl-3-[2-(pyrrolidin-1-yl)ethoxy]-1H-pyrazole hydrochloride]
melting point: 138 to 142 °C | inhibition at 0.1 µM (σ1-receptor): 87.1%

CC(C)c1cc(OCCN2CCOCC2)nn1-c1ccc(Cl)c(Cl)c1.Cl [Example 31, 4-{2-[1-(3,4-dichlorophenyl)-5-isopropyl-1H-pyrazol-3-yloxy]ethyl}morpholine hydrochloride]
melting point: 195 to 197 °C | inhibition at 0.1 µM (σ1-receptor): 68.6%

Cc1cc(OCCCCN2CCC(c3ccccc3)CC2)nn1-c1ccc(Cl)c(Cl)c1.Cl [Example 28, 1-{4-[1-(3,4-dichlorophenyl)-5-methyl-1H-pyrazol-3-yloxy]butyl}-4-phenylpiperidine hydrochloride]
melting point: 166 to 170 °C | inhibition at 0.1 µM (σ1-receptor): 95.1%

SKF 10047
affinity for the sigma (σ-2) site (sigma (σ-2) site): micromolar affinity | affinity for the sigma 1 (σ-1) site (sigma 1 (σ-1) site): nanomolar affinity

Cc1cc(OCCCN2CCCC2)nn1-c1ccc(Cl)c(Cl)c1.Cl [Example 4, 1-(3,4-Dichlorophenyl)-5-methyl-3-[3-(pyrrolidin-1-yl)propoxy]-1H-pyrazole hydrochloride]
melting point: 149 to 155 °C | inhibition at 0.1 µM (σ1-receptor): 98%

Cc1cc(OCCN2CCC(n3cnc4cccnc43)CC2)nn1-c1ccc(Cl)c(Cl)c1 [Example 7, 3-{1-[2-(1-(3,4-Dichlorophenyl)-5-methyl-1H-pyrazol-3-yloxy)ethyl]piperidin-4-yl}-3H-imidazo[4,5-b]pyridine]
melting point: 104 to 107 °C | inhibition at 0.1 µM (σ1-receptor): 94.4%

Cl.Clc1ccc(-n2nc(OCCN3CCc4ccccc4C3)cc2-c2ccccc2)cc1Cl [Example 21, 2-{2-[1-(3,4-Dichlorophenyl)-5-phenyl-1H-pyrazol-3-yloxy]ethyl}-1,2,3,4-tetrahydroisoquinoline hydrochloride]
melting point: 185 to 189 °C | inhibition at 0.1 µM (σ1-receptor): 45.5%

Cc1cc(OCCN2CCCCC2)nn1-c1ccc(Cl)c(Cl)c1 [Example 5, 1-{2-[1-(3,4-dichlorophenyl)-5-methyl-1H-pyrazol-3-yloxy]ethyl}piperidine]
melting point: 119 to 122 °C | inhibition at 0.1 µM (σ1-receptor): 108%

CC(C)c1cc(OCCN2CCc3ccccc3C2)nn1-c1ccc(Cl)c(Cl)c1.Cl [Example 36, 2-{2-[1-(3,4-dichlorophenyl)-5-isopropyl-1H-pyrazol-3-yloxy]ethyl}-1,2,3,4-tetrahydroisoquinoline hydrochloride]
melting point: 186 to 191 °C | inhibition at 0.1 µM (σ1-receptor): 52.7%

Cc1cc(OCCN2CCCC2)nn1-c1ccc2ccccc2c1.Cl [Example 64, 5-Methyl-1-(naphthalen-2-yl)-3-[2-(pyrrolidin-1-yl)ethoxy]-1H-pyrazole hydrochloride]
melting point: 170 to 171 °C | inhibition at 0.1 µM (σ1-receptor): 105%

Cl.Clc1ccc(-n2nc(OCCN3CCCC3)cc2-c2ccccc2)cc1Cl [Example 17, 1-(3,4-Dichlorophenyl)-5-phenyl-3-[2-(pyrrolidin-1-yl)ethoxy]-1H-pyrazole hydrochloride]
melting point: 137 to 147 °C | inhibition at 0.1 µM (σ1-receptor): 47.3%

Cc1cc(OCCN2CCOCC2)nn1-c1ccc(Cl)c(Cl)c1 [Example 1, 4-{2-(1-(3,4-Dichlorophenyl)-5-methyl-1H pyrazol-3-yloxy)ethyl}morpholine]
analgesia in capsaicin-induced neuropathic pain, dose dependency (FIG. 2) ([1]; 1 μg capsaicin into paw, von Frey filaments): dose dependency of the treatment | efficacy depending on the force of the von-Frey filaments (FIG. 3) ([1]; 1 μg capsaicin, 0.5 g typically in the range of neuropathic pain/allodynia): effective specifically in neuropathic pain or mechanical allodynia | % Binding σ2 (σ2-receptor): 3.7% | Ki (σ2-receptor): > 10000 nM | melting point: 179 to 182 °C

Cc1cc(OCCN2CCCC2)nn1-c1ccc(Cl)c(Cl)c1.Cl [Example 3, 1-(3,4-Dichlorophenyl)-5-methyl-3-[2-(pyrrolidin-1-yl)ethoxy]-1H-pyrazole hydrochloride]
melting point: > 280 °C (dec.) | inhibition at 0.1 µM (σ1-receptor): 102%

CC(C)c1cc(OCCCN2CCCC2)nn1-c1ccc(Cl)c(Cl)c1.Cl [Example 34, 1-(3,4-Dichlorophenyl)-5-isopropyl-3-[3-(pyrrolidin-1-yl)propoxy]-1H-pyrazole hydrochloride]
melting point: 152 to 156 °C | Ki (σ1-receptor): 12.4 nM | inhibition at 0.1 µM (σ1-receptor): 104%

Cc1cc(OCCCCN2CCOCC2)nn1-c1ccc(Cl)c(Cl)c1.Cl [Example 22, 4-{4-[1-(3,4-Dichlorophenyl)-5-methyl-1H-pyrazol-3-yloxy]butyl}morpholine hydrochloride]
melting point: 150 to 154 °C | Ki (σ1-receptor): 2.5 nM | inhibition at 0.1 µM (σ1-receptor): 97%

C[C@@H]1CN(CCCn2c3ccccc3c3ccccc32)C[C@H](C)N1 [rimcazole]
clinical effects in the treatment of psychosis (psychosis): clinically shows effects in the treatment of psychosis

Cc1cc(OCCCCN2CCN(C)CC2)nn1-c1ccc(Cl)c(Cl)c1.Cl.Cl [Example 25, 1-{4-[1-(3,4-Dichlorophenyl)-5-methyl-1H-pyrazol-3-yloxy]butyl}-4-methylpiperazine dihydrochloride]
melting point: 181 to 185 °C | Ki (σ1-receptor): 3.9 nM | inhibition at 0.1 µM (σ1-receptor): 94.2%

Cc1cc(OCCCCN2CCCCC2)nn1-c1ccc(Cl)c(Cl)c1.Cl [Example 24, 1-{4-[1-(3,4-Dichlorophenyl)-5-methyl-1H-pyrazol-3-yloxy]butyl}piperidine hydrochloride]
melting point: 156 to 161 °C | Ki (σ1-receptor): 0.5 nM | inhibition at 0.1 µM (σ1-receptor): 110%

Cc1cc(OCCN2CCCCC2)nn1-c1ccc2ccccc2c1.Cl [Example 63, 1-{2-[5-Methyl-1-(naphthalen-2-yl)-1H-pyrazol-3-yloxy]ethyl}piperidine hydrochloride]
melting point: 198 to 202 °C | inhibition at 0.1 µM (σ1-receptor): 105%
